We go through one compound from patent publication US20220133641A1, “TOPICAL FILM-FORMING SPRAY” (GRACE THERAPEUTICS INC., priority 2015, published 2022).

Structures can show the parent of a compound that is named as a salt.

Data set [1] in a line: Solubility study for drug saturation in spray vehicle (Example 45). It is filed as physicochemical. As for the experimental part:
Solubility studies to find out concentration at which the drug is present at saturation levels were performed as follows: The drug (bupivacaine hydrochloride 2, 4, 8, 10,12 & 16 mg) was added to, propylene glycol, oleyl alcohol and menthol in ethanol under stirring and mixing till clear solution is formed. The film-forming polymer in the clear drug solution was added while stirring till polymer dissolves or hydrates completely.

Data set [2] can be described thus: In-vivo study in healthy rats, drug plasma concentration after 4 sprays. Particulars: rat, topical.
Description: A total of 4 sprays were applied (two sprays on the back and two sprays on the abdominal area of the animal) using a metered dose mechanical spray pump. Blood samples were collected at 15, 30 minutes, 1, 2, 4, 8 and 24 hours. All samples were analyzed using a validated analytical LC-MS method.

Consider `CCCCN1CCCCC1C(=O)Nc1c(C)cccc1C` (stereo not shown) [Bupivacaine HCl], for which the “appearance of drug solution on standing” value in data set [1] (16 mg of drug) was “precipitated out from clear solution after standing”. Moreover, the “appearance of drug solution on standing” value in data set [1] (other solutions (2, 4, 8, 10, 12 mg)) was “clear and no precipitate was observed”. The “concentration at which drug saturation was achieved” value in data set [1] (propylene glycol, oleyl alcohol, menthol, ethanol, film-forming polymer) is reported as “about 12 mg per spray”. In data set [2] (8 mg strength), this compound registered a concentration at 0 h of 1 ng/mL, a concentration at 0.25 h of 82 ng/mL, a concentration at 0.5 h of 119 ng/mL and a concentration at 1 h of 148 ng/mL. In addition, in data set [2] (8 mg strength), the concentration at 2 h came out at 95 ng/mL, the concentration at 4 h is 221 ng/mL, the concentration at 8 h worked out at 147 ng/mL and the concentration at 24 h is 55 ng/mL. Moreover, in data set [2] (12 mg strength), the concentration at 0 h turned out to be 0 ng/mL, the concentration at 0.25 h came to 73 ng/mL, the concentration at 0.5 h is 109 ng/mL and the concentration at 1 h worked out at 249 ng/mL. In data set [2] (12 mg strength), the concentration at 2 h amounted to 180 ng/mL, the concentration at 4 h came to 270 ng/mL, the concentration at 8 h was determined as 329 ng/mL and the concentration at 24 h stood at 172 ng/mL.
